Laboratory results as given in patent US10188622B2, “Use of a composition comprising fish oil and juice for the treatment and/or post treatment of cancer” (Smartfish AS, priority 2013, dated 2019).
Where “and” joins values, the source holds several entries; their conditions need not be identical. Equal values may be shown once.

Tested on: MP2 cells co-cultured with NK (IL-2) cells
Assay: Enzymatic caspase-3 assay (CaspACE-3) in co-culture of pancreatic cancer cells and NK cells
Format: cell-based, human
Conditions: 48 hours; for Casp-3, X1 / Casp-3, X2 / Casp-3, X3 / Casp-3, Mean: MP2 cells + NK (IL-2); for Casp-3, X1: experiment X1; for Casp-3, X1 / Casp-3, X2 / Casp-3, X3: RvD1 and DHA 50 nM; for Casp-3, X2: experiment X2; for Casp-3, X3: experiment X3; for Casp-3, Mean: mean of X1-X3; for caspase-3 expression (mean ± 2× standard error): PDAC (MP2) cells co-cultured with NK cells, as stated in text
Protocol: Mia Paca2 (MP2) and L3.6 cells from pancreatic ductal adenocarcinoma so (PDAC) were obtained from T. Donahue, UCLA Surgery and were propagated in Dulbecco's Modified Eagle's Medium (DME) with 10% foetal calf serum. 10,000 cells were plated in each well of 24-well plates and were grown at 37° C. and 24 h to near confluence before testing.
These were isolated from human blood by NK cell isolation kit (Stem cell technologies, Vancouver, Canada). NK cells were activated by treatment with IL-2 or IL2/CD16 as described in Tseng, H. C. et al. “Increased lysis of stem cells but not their differentiated cells by natural killer cells; de-differentiation or reprogramming activates NK cells.” PLOS One 5(7): e11590, 2010.
Composition of the invention (Nutrifriend 2000) containing DHA (1000 mg/200 ml) and EPA (1000 mg/200 ml) was purchased by the company Smartfish AS, Oslo, For use in cell culture, diluted 1:2 with fetal calf serum, sonicated for 30 sec and then diluted 1:100 in DMEM with 10% fetal calf serum.
NK cells were added to MP2 or L3.6 cells at a ratio of 5 NK cells per 1 MP2 cell. The co-cultures were treated with Smartfish. Addition of DHA (50 nM) or resolvin D1 (RvD1 from Cayman Chemical company, Ann Arbor, Mich., 50 nM) were tested as controls. The co-cultures is were grown for 48 hours, harvested and tested by the caspase-3 assay.
The enzymatic caspase-3 assay was performed by the CaspACE-3 assay G-7351 (Promega Corporation, Madison, Wis.) according to the manufacturer's instructions.
The data were analyzed by comparing the range of means (mean+/−2× standard error of mean). When indicated the exact value was calculated by the Fisher exact test.

SMILES | Casp-3, X1 [µM] | Casp-3, X2 [µM] | Casp-3, X3 [µM] | Casp-3, Mean [µM] | caspase-3 expression (mean ± 2× standard error) | caspase-3 expression (mean ± 2× standard error) (listed as resolvinD1) [µM]
CC/C=C\C/C=C\C/C=C\C/C=C\C/C=C\C/C=C\CCC(=O)O [DHA, docosahexanoic acid] | 5.7 | 6.6 | 6 | 6.1 | 6.1 µM and 6.1 ± 0.48 µM | –
CC/C=C\C[C@H](O)/C=C/C=C\C=C\C=C\[C@@H](O)[C@@H](O)C/C=C\CCC(=O)O [RvD1, resolvin D1] | 6 | 6.3 | 6.6 | 6.3 | 6.3 ± 0.31 µM | 6.3 ± 0.31
